According to ChEMBL document CHEMBL1143658, “Discovery of 2-[(2,4-dichlorophenyl)amino]-N-[(tetrahydro- 2H-pyran-4-yl)methyl]-4-(trifluoromethyl)- 5-pyrimidinecarboxamide, a selective CB2 receptor agonist for the treatment of inflammatory pain” (J Med Chem, 2007):
Calls of active or inactive are those of the source. The rule behind the calls is not given here.

Assays:
[1] = molecular target: T1, Cannabinoid receptor 2 (Homo sapiens, UniProt P34972); assay: Agonist activity at human recombinant CB2 receptor expressed in Saccharomyces cerevisiae cells; format: functional, cell-based
[2] = molecular target: T1, Cannabinoid receptor 2; assay: Efficacy at human recombinant CB2 receptor expressed in Saccharomyces cerevisiae cells relative to HU210; format: cell-based
[3] = molecular target: T2, Cytochrome P450 1A2 (Homo sapiens, UniProt P05177); assay: Inhibition of human CYP1A2; format: ADME
T2 sequence (P05177 whole entry): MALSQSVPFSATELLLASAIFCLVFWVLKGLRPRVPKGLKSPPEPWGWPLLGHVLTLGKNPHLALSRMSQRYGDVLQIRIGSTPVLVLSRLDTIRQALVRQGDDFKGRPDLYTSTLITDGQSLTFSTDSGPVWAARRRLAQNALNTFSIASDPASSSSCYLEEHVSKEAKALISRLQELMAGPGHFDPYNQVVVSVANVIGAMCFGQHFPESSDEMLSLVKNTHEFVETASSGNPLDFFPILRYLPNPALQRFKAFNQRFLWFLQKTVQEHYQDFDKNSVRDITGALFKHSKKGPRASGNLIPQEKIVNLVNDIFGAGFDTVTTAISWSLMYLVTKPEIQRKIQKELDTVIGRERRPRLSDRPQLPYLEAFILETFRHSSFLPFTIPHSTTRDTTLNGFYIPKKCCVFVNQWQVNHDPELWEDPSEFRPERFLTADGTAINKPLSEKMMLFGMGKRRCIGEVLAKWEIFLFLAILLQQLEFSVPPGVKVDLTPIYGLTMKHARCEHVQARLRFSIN

[4] = molecular target: Cytochrome P450 2C9 (Homo sapiens, UniProt P11712); assay: Inhibition of human CYP2C9; format: ADME
[5] = molecular target: Cytochrome P450 2C19 (Homo sapiens, UniProt P33261); assay: Inhibition of human CYP2C19; format: ADME
[6] = molecular target: Cytochrome P450 2D6 (Homo sapiens, UniProt P10635); assay: Inhibition of human CYP2D6; format: ADME
[7] = molecular target: Cytochrome P450 3A4 (Homo sapiens, UniProt P08684); assay: Inhibition of human CYP3A4
[8] = test system: Rattus norvegicus; assay: Reversal of antihypersensitivity to pain in rat FCA model of inflammatory pain at 15 mg/kg, ip after 1 hr; format: functional, organism-based; parameters: dose 15 mg/kg
[9] = molecular target: T3, Cannabinoid receptor 2 (Rattus norvegicus) (UniProt Q9QZN9); assay: (§1) Agonist activity at rat CB2 receptor; format: functional
T3 sequence (whole entry): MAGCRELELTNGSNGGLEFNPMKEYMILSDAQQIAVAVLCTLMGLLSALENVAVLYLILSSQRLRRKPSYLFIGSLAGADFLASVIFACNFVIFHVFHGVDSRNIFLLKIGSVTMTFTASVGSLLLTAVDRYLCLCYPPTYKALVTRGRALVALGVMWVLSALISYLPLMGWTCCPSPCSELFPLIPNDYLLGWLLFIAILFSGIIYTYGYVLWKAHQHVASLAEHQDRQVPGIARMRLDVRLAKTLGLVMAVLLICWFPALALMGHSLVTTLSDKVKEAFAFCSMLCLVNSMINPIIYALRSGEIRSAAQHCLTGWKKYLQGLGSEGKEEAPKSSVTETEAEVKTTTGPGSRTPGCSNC

[10] = molecular target: T4, Cannabinoid receptor 2 (Rattus norvegicus, UniProt Q9QZN9); assay: as §1; format: functional
T4 sequence (Q9QZN9 whole entry): T3 sequence (whole entry)

[11] = Oral bioavailability in rat; format: ADME, organism-based; conditions: in vivo
[12] = Half life in rat; format: ADME, organism-based; conditions: in vivo
[13] = test system: Rattus norvegicus; assay: Analgesic activity in po dosed rat FCA model of inflammatory pain; format: functional
[14] = test system: Rattus norvegicus; assay: Reversal of hyperalgesia in rat at 0.3 mg/kg, po by weight bearing protocol; format: functional, organism-based; parameters: dose 0.3 mg/kg
[15] = Drug concentration in blood of rat FCA model of inflammatory pain at 0.03 mg/kg, po after 1hr; format: ADME, organism-based; parameters: dose 0.03 mg/kg, route oral; conditions: read-out: Activity
[16] = Drug concentration in blood of rat FCA model of inflammatory pain at 0.1 mg/kg, po after 1hr; format: ADME, organism-based; parameters: dose 0.1 mg/kg, route oral; conditions: read-out: Activity
[17] = Drug concentration in blood of rat FCA model of inflammatory pain at 0.3 mg/kg, po after 1hr; format: ADME, organism-based; parameters: dose 0.3 mg/kg, route oral; conditions: read-out: Activity
[18] = test system: Rattus norvegicus; assay: Reversal of FCA-induced hyperalgesia in rat administered thrice daily at 1 mg/kg, po; format: functional, organism-based; parameters: dose 1 mg/kg

Cytochrome P450 2C9, sequence (P11712 whole entry): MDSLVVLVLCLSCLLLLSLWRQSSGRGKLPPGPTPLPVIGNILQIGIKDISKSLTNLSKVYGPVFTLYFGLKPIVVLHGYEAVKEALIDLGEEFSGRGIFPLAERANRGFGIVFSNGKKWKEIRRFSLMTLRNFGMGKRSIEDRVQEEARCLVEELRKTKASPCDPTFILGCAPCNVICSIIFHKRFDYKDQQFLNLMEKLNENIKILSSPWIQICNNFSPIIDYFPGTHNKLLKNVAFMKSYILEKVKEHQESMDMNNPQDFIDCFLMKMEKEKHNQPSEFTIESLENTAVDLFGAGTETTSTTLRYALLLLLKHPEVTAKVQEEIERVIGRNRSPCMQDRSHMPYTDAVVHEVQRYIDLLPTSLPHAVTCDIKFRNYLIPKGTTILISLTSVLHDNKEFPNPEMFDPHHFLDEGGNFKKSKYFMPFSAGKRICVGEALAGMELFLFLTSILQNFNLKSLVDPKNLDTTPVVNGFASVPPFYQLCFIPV
Cytochrome P450 2C19, sequence (P33261 whole entry): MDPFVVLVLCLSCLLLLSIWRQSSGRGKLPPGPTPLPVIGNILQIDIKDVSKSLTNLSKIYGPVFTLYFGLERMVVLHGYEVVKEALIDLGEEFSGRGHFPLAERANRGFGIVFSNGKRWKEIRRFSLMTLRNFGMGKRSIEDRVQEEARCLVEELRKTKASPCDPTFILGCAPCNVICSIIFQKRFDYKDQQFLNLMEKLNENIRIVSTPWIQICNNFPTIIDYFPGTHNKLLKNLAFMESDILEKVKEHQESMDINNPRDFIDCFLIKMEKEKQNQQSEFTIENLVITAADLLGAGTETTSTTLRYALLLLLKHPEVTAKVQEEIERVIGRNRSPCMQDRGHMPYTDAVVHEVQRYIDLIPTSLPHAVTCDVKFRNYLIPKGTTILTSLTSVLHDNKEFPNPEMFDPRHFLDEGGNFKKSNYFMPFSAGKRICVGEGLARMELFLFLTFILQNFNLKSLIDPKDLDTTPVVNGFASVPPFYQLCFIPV
Cytochrome P450 2D6, sequence (P10635 whole entry): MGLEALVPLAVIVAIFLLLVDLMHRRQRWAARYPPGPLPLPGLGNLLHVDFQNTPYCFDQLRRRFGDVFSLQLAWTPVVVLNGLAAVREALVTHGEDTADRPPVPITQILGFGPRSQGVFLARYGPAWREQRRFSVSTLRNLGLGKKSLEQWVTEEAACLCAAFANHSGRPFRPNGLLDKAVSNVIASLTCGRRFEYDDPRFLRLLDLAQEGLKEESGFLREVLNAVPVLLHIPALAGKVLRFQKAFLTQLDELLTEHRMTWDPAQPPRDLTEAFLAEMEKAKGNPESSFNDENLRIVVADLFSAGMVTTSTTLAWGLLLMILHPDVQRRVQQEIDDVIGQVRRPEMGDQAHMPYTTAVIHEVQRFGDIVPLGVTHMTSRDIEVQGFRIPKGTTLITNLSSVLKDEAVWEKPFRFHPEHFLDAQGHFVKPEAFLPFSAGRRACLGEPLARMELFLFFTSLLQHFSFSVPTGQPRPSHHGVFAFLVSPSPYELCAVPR
T1 sequence (P34972 whole entry): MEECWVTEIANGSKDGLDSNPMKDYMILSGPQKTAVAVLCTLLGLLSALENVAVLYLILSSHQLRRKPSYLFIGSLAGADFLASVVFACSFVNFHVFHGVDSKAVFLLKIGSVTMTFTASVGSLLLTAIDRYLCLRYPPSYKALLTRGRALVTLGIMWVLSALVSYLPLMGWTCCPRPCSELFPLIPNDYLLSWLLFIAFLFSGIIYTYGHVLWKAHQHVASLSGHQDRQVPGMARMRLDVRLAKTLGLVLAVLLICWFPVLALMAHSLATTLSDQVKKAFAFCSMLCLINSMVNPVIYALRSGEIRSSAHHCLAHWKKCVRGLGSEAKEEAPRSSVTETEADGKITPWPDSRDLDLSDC
Cytochrome P450 3A4, sequence (P08684 whole entry): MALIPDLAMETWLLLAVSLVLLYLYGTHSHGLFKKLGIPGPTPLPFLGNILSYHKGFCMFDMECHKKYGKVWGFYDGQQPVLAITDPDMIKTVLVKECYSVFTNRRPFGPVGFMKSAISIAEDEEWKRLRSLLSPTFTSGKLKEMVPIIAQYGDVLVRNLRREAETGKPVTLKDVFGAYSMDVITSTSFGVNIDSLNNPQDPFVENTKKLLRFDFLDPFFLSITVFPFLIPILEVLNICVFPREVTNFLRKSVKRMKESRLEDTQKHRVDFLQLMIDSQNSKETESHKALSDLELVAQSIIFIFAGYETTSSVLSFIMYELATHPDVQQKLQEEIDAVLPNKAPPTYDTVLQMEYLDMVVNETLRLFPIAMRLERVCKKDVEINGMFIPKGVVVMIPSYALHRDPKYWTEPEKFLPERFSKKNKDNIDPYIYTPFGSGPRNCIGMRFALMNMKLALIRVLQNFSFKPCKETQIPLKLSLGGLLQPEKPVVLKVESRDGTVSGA

Row | SMILES | EC50 [1] [µM] | Efficacy [2] [%] | also measured
1 | O=C(NCc1ccccc1)c1cnc(Nc2cccc(Cl)c2)nc1C(F)(F)F | 0.245 | 82 | –
2 | O=C(NCc1ccccc1)c1cnc(Nc2cccc(Br)c2)nc1C(F)(F)F | 0.23 | 81 | –
3 | O=C(NCC1CCNCC1)c1cnc(Nc2cccc(Cl)c2)nc1C(F)(F)F | 5 | 46 | –
4 | O=C(NCC1CCC1)c1cnc(Nc2cccc(Cl)c2)nc1C(F)(F)F | 0.04 | 82 | IC50 [3]: 8 µM; IC50 [4]: 3 µM; IC50 [5]: 8 µM; IC50 [6]: 22 µM; IC50 [7]: 75 µM
5 | COc1ccc(CNC(=O)c2cnc(Nc3cccc(Cl)c3)nc2C(F)(F)F)cc1 | 0.214 | 66 | –
6 | N#Cc1ccc(CNC(=O)c2cnc(Nc3cccc(Cl)c3)nc2C(F)(F)F)cc1 | 0.22 | 69 | –
7 | CC(C)(C)c1ccc(Nc2ncc(C(=O)NCc3ccccc3)c(C(F)(F)F)n2)cc1 | > 25 | – | –
8 | O=C(NCC1CCCC1)c1cnc(Nc2cccc(Cl)c2)nc1C(F)(F)F | 0.08 | 83 | IC50 [3]: 32 µM; IC50 [4]: 6 µM; IC50 [5]: 14 µM; IC50 [6]: > 100 µM; IC50 [7]: 65 µM
9 | O=C(NCc1ccc(Cl)cc1)c1cnc(Nc2cccc(Cl)c2)nc1C(F)(F)F | 0.4 | 65 | –
10 | O=C(NCC1CCOCC1)c1cnc(Nc2cc(Cl)cc(Cl)c2)nc1C(F)(F)F | 0.033 | 85 | IC50 [3]: > 100 µM; IC50 [4]: 13 µM; IC50 [5]: 14 µM; IC50 [6]: 27 µM; IC50 [7]: 38 µM
11 | CC(=O)Nc1cccc(Nc2ncc(C(=O)NCc3ccccc3)c(C(F)(F)F)n2)c1 | > 25 | – | –
12 | O=C(NCc1ccccc1)c1cnc(Nc2ccc(Cl)cc2)nc1C(F)(F)F | 0.126 | 49 | –
13 | O=C(NCC1CCOCC1)c1cnc(Nc2ccc(F)cc2Cl)nc1C(F)(F)F | 0.4 | 85 | –
14 | O=C(NCC1CCOCC1)c1cnc(Nc2cc(Cl)ccc2Cl)nc1C(F)(F)F | 0.1 | 85 | –
15 | COc1ccc(C(=O)c2c(C)n(CCN3CCOCC3)c3cc(I)ccc23)cc1 | – | – | Activity [8]: Active
16 | O=C(NCC1CCOCC1)c1cnc(Nc2ccc(F)cc2F)nc1C(F)(F)F | 0.63 | 81 | –
17 | O=C(NCC1CCOCC1)c1cnc(Nc2ccc(Cl)cc2Cl)nc1C(F)(F)F [GW842166X] | 0.063 | 95 | IC50 [3]: > 100 µM; IC50 [4]: > 100 µM; IC50 [5]: > 100 µM; IC50 [6]: > 100 µM; IC50 [7]: > 100 µM; Efficacy [9]: 100%; EC50 [10]: 0.091 µM; bioavailability [11]: 58%; half-life [12]: 3 h; ED50 [13]: 0.1 mg/kg; Activity [14]: Active; concentration at 1 h [15]: 30 nM; concentration at 1 h [16]: 130 nM; concentration at 1 h [17]: 370 nM; Activity [18]: Active
18 | O=C(NCC1CCOCC1)c1cnc(Nc2cccc(Cl)c2F)nc1C(F)(F)F | 0.125 | 90 | IC50 [3]: 99 µM; IC50 [4]: 75 µM; IC50 [5]: > 100 µM; IC50 [6]: > 100 µM; IC50 [7]: > 100 µM
19 | COc1cccc(Nc2ncc(C(=O)NCc3ccccc3)c(C(F)(F)F)n2)c1 | 0.465 | 76 | –
20 | COc1ccc(Nc2ncc(C(=O)NCc3ccccc3)c(C(F)(F)F)n2)cc1 | 0.2 | 32 | –
21 | O=C(NCC1CCOCC1)c1cnc(Nc2cccc(Cl)c2)nc1C(F)(F)F | 0.05 | 89 | IC50 [3]: > 100 µM; IC50 [4]: 18 µM; IC50 [5]: 56 µM; IC50 [6]: 51 µM; IC50 [7]: 51 µM
22 | COc1ccccc1Nc1ncc(C(=O)NCc2ccccc2)c(C(F)(F)F)n1 | 0.158 | 77 | –
23 | N#Cc1ccc(Nc2ncc(C(=O)NCc3ccccc3)c(C(F)(F)F)n2)cc1 | 0.4 | 67 | –
